Assay results published in patent US10793522B2, “Sulfonamides as inhibitors of the uptake of extracellular citrate” (Boehringer Ingelheim International GmbH, priority 2016, dated 2020).

Assays:
hSLC13A5 [1] = target: T1, hSLC13A5 (Homo sapiens, UniProt Q86YT5); assay: HepG2/14C-citrate uptake assay; format: cell-based; set-up: HepG2 cells endogenously express hSLC13A5 transporter which is responsible for the uptake of citrate into these cells; endogenous in cells; host or cells: HepG2; conditions: HepG2 cells endogenously expressing hSLC13A5; Cytostar-T; 14C-citrate ~1.8 μM; incubation over night
Excerpt: (4) HepG2/^14C-Citrate Uptake Assay
HepG2 cells endogenously expressing hSLC13A5 were obtained from the Wistar Institute (Knowles et al., Science 1980, 209, 497-499).
HepG2 cells endogenously express hSLC13A5 transporter which is responsible for the uptake of citrate into these cells. […] The uptake of ^14C-citrate into HepG2 cells is monitored using the Cytostar-T assay. This assay format is based on the imported radioactive citrate brought into proximity with the scintillant contained within the base of the plate by virtue of the biological processes within the cells. The radioactive decay is converted to a light signal based on the integration of the scintillation matrix into the assay plate.
(§1) Method: ^14C-Citrate Uptake Assay
Starting from 10 mM stock solutions in 100% DMSO, compounds are diluted in pure DMSO using the appropriate dilution steps. Prior to the uptake assay, 400 μL assay medium+4.8 μL compound solution (or pure DMSO for non-inhibited control wells) are mixed (final DMSO concentration in the assay: 1% (v/v)) ^14C-citrate working solution (volumes required per 96-well):
The HepG2 cells are cultivated in cell culture medium (EMEM+10% fetal calf serum+1×NEAA and 10 mM L-Glutamin) For the assay, the medium of the confluent cultures is discarded and the cells are washed with DPBS w/o Mg^2+ w/o Ca^2+. The cells are detached by the addition of 1.0 mL 2× Trypsin in DPBS w/o Mg^2+ w/o Ca^2+ with 7.5 mM EDTA per 75 cm^2 culture flask for up to 3 minutes at 37° C. and resuspended in 10 mL cell culture medium. Following cell counting, 100,000 cells/well are seeded in a volume of 200 μL into Cytostar-T Scintillating 96-well microplates. After overnight incubation in a humid cell culture incubator at 37° C., 5% CO2, the cell culture medium is carefully aspirated and the cells are incubated with 200 μL prewarmed (37° C.) assay medium (50% DMEM+50% Ham's F-12+15 mM HEPES (pH 7.4) (medium contains 15.5 m M D(+)-glucose) per well for at least 1 h prior to the experiment.
Immediately prior to uptake assay, the assay medium is carefully removed and 100 μL test compound dilution is added to each well (n=3).
Following a 20 min incubation at 37° C. in the cell culture incubator, 20 μL of ^14C-citrate working solution is added to each well (final volume per well: 120 μL; final ^14C-citrate concentration ˜1.8 μM/well)).
After incubation over night at 37° C. in the cell culture incubator, the plates are sealed on the top using a transparent plastic foil and on the bottom using a white plastic foil. Following the sealing, the plate is placed into the TopCount NXT HTS and the signal is recorded.
(§2) The IC50 values of the compounds are calculated in IDBS XLfit by sigmoidal dose-response (variable slope).

hSLC13A5 [2] = target: T1, hSLC13A5; assay: Recombinant hSLC13A5/14C-citrate uptake assay; format: cell-based; conditions: HEK293 Flp-In cells over-expressing hSLC13A5; WGA-PVT SPA beads; 14C-citrate approx. 2 μM; 4 h
Excerpt: (5) Recombinant hSLC13A5/^14C-Citrate Uptake Assay
The human embryonic kidney 293 (HEK 293)-Flp-In cells (293Flp-In-hSLC13A5) over-expressing hSLC13A5 transporter were cloned: The originating plasmid pcDNA3.1-hSLC13A5 containing hSLC13A5 was synthesized at GeneArt. The cDNA for hSLC13A5 was taken from this plasmid by means of PCR amplification using primers with added HindIII (N-terminal) and XhoI (C-terminal) restriction sites and sub-cloned in frame into pcDNA5/FRT from Invitrogen using the respective restriction enzymes. HEK293 Flp-In cells from Invitrogen were stably co-transfected using the pcDNA/FRT-hSLC13A5 plasmid as well as the pOG44 plasmid.
HEK 293-Flp-In cells are used that stably over-express hSLC13A5 transporter which is responsible for the uptake of citrate into these cells.
The uptake of ^14C-citrate into the 293Flp-In-hSLC13A5 cells is monitored using the WGA-PVT SPA (wheat germ agglutinin-polyvinyltoluene scintillation proximity assay) beads that bind to the 293Flp-In cells due to their WGA-PVT surface. This assay format is based on the imported radioactive citrate brought into proximity with the SPA beads by virtue of the biological processes within the cells. The radioactive decay is converted into a light signal that can be measured using e.g. the TopCount plate reader.
as §1
Test Compound Dilutions (2Fold-Concentrated):
Starting from 10 mM stock solutions in 100% DMSO, compounds are diluted in pure DMSO using the appropriate dilution steps.
Prior to the uptake assay, 200 μL assay medium (lx HBSS (with Ca^2+ and Mg^2+, w/o Phenolred), contains 5.56 mM D(+)-Glucose)+19.44 mM D(+)-Glucose (final concentration of D(+)-Glucose is 25 mM))+4.8 μL compound solution (or pure DMSO for non-inhibited control wells) are mixed (final DMSO concentration in the assay: 1% (v/v)).
After preparing the 2fold-concentrated test compound dilutions, 50 μL are pipetted to each well of white OptiPlates-96 and incubated at 37° C. in an incubator.
^14C-Citrate Working Solution (Volumes Required Per 96-Well):
The 293Flp-In-hSLC13A5 cells are cultivated in cell culture medium (DMEM+10% fetal calf serum+100 μg/mL Hygromycin B). The medium of the confluent cultures is discarded and the cells are washed with DPBS (w/o Mg^2+ w/o Ca^2+). The cells are detached by the addition of 2.0 mL Accumax per 75 cm^2 culture flask for up to 3 minutes at 37° C. and resuspended in 10 mL assay medium. After cell counting, 50,000 cells/well are administered in a volume of 50 μL into the white OptiPlates-96 containing the respective test compound concentrations. Following a 20 min incubation at 37° C. in the cell culture incubator, 20 μL of ^14C-citrate working solution is added to each well (final volume per well: 120 μL; final ^14C-citrate concentration: approx. 2 μM/well).
After incubation for 4 h at 37° C. in a humid cell culture incubator and the addition of 30 μL of WGA-PVT SPA beads to each well (0.25 mg/well), the plates are sealed on the top using a transparent plastic foil. Incubate the plates for 1 h by room temperature and gentle shaking.
After incubation, the plate is placed into the TopCount NXT HTS and the signal is recorded.
The performance of the test compounds is calculated as follows:
Wells containing cells incubated with 1% DMSO only deliver values for the non-inhibited ^14C-citrate uptake into 293Flp-In-hSLC13A5 cells (100% CTL). Wells containing cells which have received 30 mM non-labelled potassium citrate solution in addition to the ^14C-citrate working solution deliver values for the background (0% CTL).
as §2

T1 sequence (Q86YT5 whole entry): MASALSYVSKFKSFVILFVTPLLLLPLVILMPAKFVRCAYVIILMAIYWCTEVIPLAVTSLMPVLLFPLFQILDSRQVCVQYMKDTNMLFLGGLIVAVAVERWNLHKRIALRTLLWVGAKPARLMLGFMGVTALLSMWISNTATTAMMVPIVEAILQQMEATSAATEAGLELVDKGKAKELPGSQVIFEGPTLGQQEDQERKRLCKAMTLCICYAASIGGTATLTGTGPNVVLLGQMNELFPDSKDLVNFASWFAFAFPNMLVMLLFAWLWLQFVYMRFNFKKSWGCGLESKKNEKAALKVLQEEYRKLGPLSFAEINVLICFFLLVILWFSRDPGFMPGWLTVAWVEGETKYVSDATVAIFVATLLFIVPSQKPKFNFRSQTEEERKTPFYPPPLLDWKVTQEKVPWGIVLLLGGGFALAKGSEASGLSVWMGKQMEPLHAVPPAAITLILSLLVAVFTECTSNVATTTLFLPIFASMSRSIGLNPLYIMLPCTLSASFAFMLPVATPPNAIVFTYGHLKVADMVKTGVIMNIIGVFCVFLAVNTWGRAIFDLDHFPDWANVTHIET

Row | Compound | IC50 (hSLC13A5 [1]) [nM] | IC50 (hSLC13A5 [2]) [nM]
1 | CCOc1cc(Cl)cc(S(=O)(=O)N2CCC(C(=O)NCc3ccc(F)cn3)CC2)c1 [(I-55)] | 56 | 189
2 | O=C(NCc1ccccn1)C1CCN(S(=O)(=O)c2cc(Br)cc(Br)c2)CC1 [(I-37)] | 253 | 89
3 | COc1ccccc1CNC(=O)C1CCN(S(=O)(=O)c2cc(C)cc(C)c2)CC1 [(I-44)] | 132 | 703
4 | Cc1cc(Br)cc(S(=O)(=O)N2CCC(C(=O)NCc3ccc(F)cn3)CC2)c1 [(I-62)] | 99 | 232
5 | COc1ncccc1CNC(=O)C1CCN(S(=O)(=O)c2cc(Cl)cc(Cl)c2)CC1 [(I-13)] | 201 | 475

More lines, in order of falling IC50 (hSLC13A5 [1]), values ahead:

Row | IC50 (hSLC13A5 [1]) [nM] | IC50 (hSLC13A5 [2]) [nM] | Compound
6 | 171 | 127 | O=C(NCc1ccc(Br)cn1)C1CCN(S(=O)(=O)c2cc(Cl)cc(Cl)c2)CC1 [(I-28)]
7 | 155 | 438 | Cc1cc(C)cc(S(=O)(=O)N2CCC(C(=O)NCc3nc(C)cs3)CC2)c1 [(I-41)]
8 | 147 | 54 | O=C(NCc1ccc(F)cn1)C1CCN(S(=O)(=O)c2cc(Br)cc(Br)c2)CC1 [(I-35)]
9 | 73 | 127 | CCOc1cc(Cl)cc(S(=O)(=O)N2CCC(C(=O)NCc3ccc(C#N)cc3F)CC2)c1 [(I-50)]
10 | 51 | 200 | CCOc1cc(Cl)cc(S(=O)(=O)N2CCC(C(=O)NCc3ccc(Cl)cn3)CC2)c1 [(I-52)]
